Test results as given in patent US20080262088A1, “METHODS, COMPOUNDS, AND COMPOSITIONS FOR TREATING METABOLIC DISORDERS AND DIABETES” (priority 2006, published 2008).
Blank lines part the entries; values can stand above or below the molecule they belong to.

Assays:
[1] = system: patients with AA amyloidosis; conditions: previously tested clinically in patients with AA amyloidosis; cited from earlier work
[2] = system: Zucker Diabetic Fatty rat (ZDF); assay: Effect on pancreatic function in ZDF rats (satient insulin, glycemia, diuresis); type: in vivo
Method: (§1) Thirty-two, 6 week-old male ZDF rats (Charles River, St. Constant, Canada) were randomized in 2 groups, Treated (PDS; in 1% sucrose drinking solution) and Control (1% sucrose drinking solution), and studied for a period of 12 weeks. […] All rats were fed a high fat/high sucrose diabetogenic diet (Harlan™ TD95217). Body weight, food and drinking solution consumption were measured on a daily basis. Twelve rats from each group were individually housed in metabolic cages for a period of 24 hours once a week. During week 2, 3, 4 and 5, rats placed in metabolic cages received drinking solution but were placed in fasting condition, whereas during weeks 1, […], 6 to 12, rats were given ad libitum access to food and drinking solution. At the end of each metabolic cage session, urine output was measured, and blood and urine samples were collected in order to quantify serum and/or urine levels of PDS, creatinine, protein, uric acid, triglycerides, glucose, and electrolytes. These variables were used to calculate creatinine clearance (Ccr) and proteinuria, and to evaluate general metabolic and renal health status. At the end of the study, the animals were sacrificed and selected organs were kept for further analysis (e.g. weighing, histology).
As is known, diabetes may be due to a lack of insulin secretion (type I diabetes), or to a resistance of peripheral tissues to insulin action (more insulin is needed to decrease blood glucose to the same level as controls in the same amount of time; type II diabetes). The Zucker obese diabetic rat employed in this study is a model of insulin resistance. Hyperglycemia is almost always observed in this model, despite the initially very high circulating insulin levels that fall down with the progression of the disease due to pancreatic beta cell exhaustion. A beneficial treatment is expected to increase insulin secretion, decrease glucose levels by other means or increase glucose utilization by peripheral tissues.
Results for each time point are represented as median and mean ± SEM. Trend statistics are calculated by two-way ANOVA with or without repeated measures, with p<0.05 considered statistically significant.

[3] = system: Zucker Diabetic Fatty rat (ZDF); assay: Histology of the pancreas in ZDF rats (islets of Langerhans per field); type: in vivo; conditions: week 12, significant difference, FIG. 11
Excerpt: FIG. 11 is a box graph showing distribution of number of islets of Langerhans per field counted during histology of the pancreas from control and treated Zucker diabetic obese male rats at week 12, according to Example 11(b). Box plot lower limit represents the 25th percentile, whereas higher limit represents 75th percentile. Whiskers above and below indicate 90th and 10th percentiles, and median and mean values are represented by solid and dashed lines respectively.
(§2) Thirty-two, 6 week-old male ZDF rats (Charles River, St. Constant, Canada) were randomized in 2 groups, Treated (PDS; in 1% sucrose drinking solution) and Control (1% sucrose drinking solution), and studied for a period of 12 weeks. […] All rats were fed a high fat/high sucrose diabetogenic diet (Harlan™ TD95217). Body weight, food and drinking solution consumption were measured on a daily basis. Twelve rats from each group were individually housed in metabolic cages for a period of 24 hours once a week. […] At the end of each metabolic cage session, urine output was measured, and blood and urine samples were collected in order to quantify serum and/or urine levels of PDS, creatinine, protein, uric acid, triglycerides, glucose, and electrolytes. […]

[4] = system: Zucker Diabetic Fatty rat (ZDF); assay: In vivo preventive study of renal function and metabolic status in ZDF rats (serum/urine chemistry, body and organ weights)
Excerpt: The compound 1,3 Propanedisulfonic Acid Disodium Salt (PDS) was selected for a preventive study of renal function in the Zucker rat (ZDF) model as well as its effect on metabolic status and diabetes.
A leading study model for DN is the inbred Zucker Diabetic Fatty rat (ZDF). Given a diabetogenic diet, the ZDF rat will closely mimic human adult onset diabetes (Type 2) and related complications including glomerulosclerosis and renal damage earlier than when fed a normal diet (i.e. 14-18 weeks of age). In addition, obesity, mild hypertension, hypertriglyceridemia, hypercholesterolemia, fasting hyperglycemia, impaired glucose tolerance and hyperinsulinemia, are all major phenotypes featured in the ZDF rat.
as §1
This pre-clinical investigation evaluates the role and efficacy of compound 1,3-Propanedisulfonic Acid Disodium Salt (PDS) (Eprodisate Disodium) as a preventive treatment for DN and related pathophysiology in the ZDF rat model. The primary measured outcome is the attenuation/reversal of creatinine clearance deterioration and of proteinuria. The secondary measured outcome is the impact on the metabolic status in this model.
Results for each time point are represented as median or mean ± SEM. Trend statistics are calculated by two-way ANOVA with or without repeated measures, with p<0.05 considered statistically significant.

[5] = system: Peroxisome proliferator-activated receptor gamma (PPARG); assay: Kidney gene expression, Gene Chip Rat Exon 1.0 ST Array; type: in vivo; conditions: pooled whole kidney RNA, treated vs controls
Method: The effect of the PDS treatment on kidney gene expression was also measured. Briefly, whole kidney RNA was isolated and pooled from 2-4 individual rats from each group (controls and treated group). The polled RNA was then processed using a Gene Chip Rat Exon 1.0 ST Array™ (Affimetrix) according to the manufacturer's standard procedure and analyzed for differential expression between the two groups on gene and exon levels. […] PPARG is a well known transcriptional regulator that regulates lipid, glucose and amino acid metabolism, and this receptor is the main target of the thiazolidinediones used in diabetes mellitus and other diseases that feature insulin resistance.

SHR rats = assay: In vivo preventive study of pancreatic function in SHR rats (streptozotocine, OGTT); parameters: species or system rat; conditions: low dose streptozotocine after initiation of treatment, PDS vs vehicle
Method: SHR rats are non-diabetic rats but having insulin resistance. Rats are divided in two groups which are administered PDS or vehicle respectively. After initiation of treatment, all rats are administered streptozotocine at low dose with the aim to chemically destroy a portion of Langerhans islets. Both treated and control rats are challenged by an Oral Glucose Tolerance Test (OGTT) and glucose levels are measured.

[6] = system: Zucker Diabetic Fatty rat (ZDF); assay: Kidney histology (glomerular global score) in ZDF rats; type: in vivo; conditions: after 12 weeks
Excerpt: FIG. 7 is a bar graph showing glomerular global score for control and treated satient Zucker diabetic obese male rats after 12 weeks, according to Example 11(a). Categories: (−) no global score; (±) mild global score; (+) mild to moderate global score; (++) moderate global score.
as §2
Histology was performed on both controls and PDS-treated animals. […] The global score was calculated by summing up the number of observations for each histological parameter (mesangial matrix expansion, glomerular cell proliferation, basement membrane thickening, and glomerular enlargement). […]

[7] = end of 12-week study, not shown

Compound: O=S(=O)(O)CCCS(=O)(=O)O [1,3-propanedisulfonic acid]
safety in humans [1]: can be safely used in humans

heart weight/BW ratio, treated vs control [4, 7]: no significant difference
kidney weight/BW ratio, treated vs control [4, 7]: no significant difference
pancreas weight/BW ratio, treated vs control [4, 7]: no significant difference
bodyweight of the treated vs. the control animals ([4]; male ZDF rats, PDS in 1% sucrose drinking solution, 12 weeks, data not shown): not significant difference
Compound: O=S(=O)([O-])CCCS(=O)(=O)[O-].[Na+].[Na+] [PDS, 1,3 Propanedisulfonic Acid Disodium Salt]
glycemia, serum glucose by hexokinase (HK) II method, PDS-treated vs control ([2]; by week 10, p<0.001, FIG. 9A): significantly lower
glycemia, capillary blood glucose by glucose meter kit, PDS-treated vs control ([2]; by week 10, p=0.002, FIG. 9B): significantly lower
satient serum insulin (RIA), PDS-treated vs control ([2]; end of the experiment (12 weeks), fed animals, FIG. 8): more than twice as high
diuresis (urine production), PDS-treated vs control ([2]; from week 9, FIG. 10): lower
number of islets of Langerhans per field, treated vs controls [3]: higher number
creatinine clearance (body weight corrected), treated vs control ([4]; 12 weeks of treatment, FIG. 2B, slight tendency to be higher weeks 6-8): no significant difference
clearance of uric acid, treated vs control ([4]; FIG. 4B, body weight corrected): better in treated animals
proteinuria (urine protein content), treated vs control ([4]; after 8 weeks measurable effect, difference significant at weeks ten and twelve, FIG. 3): lesser proteinuria
kidney size, treated vs controls ([4]; end of 12-week study): tended to be smaller
serum triglycerides, PDS-treated vs controls ([4]; from onset of treatment throughout the study, p=0.002, FIG. 6A): consistently lower
adverse effect at the beginning of the study (little decline in body weight) ([4]; higher concentration of PDS, week 1 (avg 4270 mg/kg/day)): diarrhea
serum creatinine, treated vs control ([4]; satient ZDF rats, 12 weeks, FIG. 2A, stable in both groups): tendency for lower values between treatment weeks 6 and 9
hyperkalemia (serum potassium), control vs treated ([4]; starting at week 7, weeks 8 to 12, p<0.001, FIG. 5): significantly more severe in the control group
serum cholesterol, PDS-treated vs control ([4]; treatment week 10, FIG. 6B): significantly lower
serum cholesterol ([4]; week 12, control 7.1 mmol/L, p<0.001): 4.5 mmol/L
uric acid levels in serum, control group relative to PDS-treated animals ([4]; weeks 6 to 12, FIG. 4A): consistently higher than values from the PDS-treated animals
PPARG gene expression in kidney, increase in treatment group [5]: 1.85 fold
number of genes down regulated in the treatment group ([5]; not shown): 43 genes
number of genes up regulated in the treatment group ([5]; not shown): 75 genes
glucose levels after Oral Glucose Tolerance Test (OGTT) (SHR rats): lower glucose levels than control
glomerular global score (histology) ([6]; p=0.001, FIG. 7, sum of mesangial matrix expansion, glomerular cell proliferation, basement membrane thickening, glomerular enlargement): lowest scores
kidney pathology (histology), treated vs control ([6]; not shown separately): less pathology
